Assays:
[1] = Parallel artificial membrane permeability assay (PAMPA) for blood-brain barrier; type: in vitro ADME
Text: The capacity of BQR and BAY to permeate the blood-brain barrier was first examined using the in vitro parallel artificial membrane permeability assay (PAMPA)^48 (FIG. 5A).

[2] = test system: SU_MB002 cells genomic DNA; test: Differential methylation analysis (Illumina EPIC array); type: cell-based, human
Procedure: Illumina Human Infinium MethylationEPIC (EPIC) BeadChip (Illumina, CA, USA) array was performed at The Centre for Applied Genomics, The Hospital for Sick Children (Toronto) using the manufacturer's standard protocol.
Raw IDAT files (annotation: ilm10b4.hg19) were processed using R (Version 4.1.2) and quality control and normalization was performed using minfi^76. Intensity and density plots were generated, and no samples were removed from the analysis as the mean detection p-values for all probed genomic positions were <0.01 for each sample. Probes with mean detection p-values >0.01 across all samples were excluded. Probes mapping sex chromosomes, single nucleotide polymorphisms (SNPs), and cross-hybridisation probes were removed. Quantile normalization was performed, and density plots were generated before and after normalization. Differential analysis was completed with beta values of 768467 CpGs for 8 samples comparing BAY to DMSO at 48 h and 72 h using limma^77. P-values were adjusted for False Discovery Rate (FDR) using Benjamini and Hochberg method, and a 10% FDR and log FC of >|0.1| cut-off was used.
Differentially methylated positions (DMPs) were annotated using the USCS (UCSC_RefGene_Name, UCSC_RefGene_Group and Relation_to_Island) from the Infinium MethylationEPIC Manifest. The analysis was performed focusing on DMPs within promoter islands (considering TSS1500, TSS200, 5′UTR and 1st exon as promotor regions). Enrichment analysis of unique genes (using UCSC RefGene Name) identified within DMPs at promoter islands was performed using Enrichr (ENCODE TF ChIP-seq 2015)^43.

SMILES: CCn1c(CO)nn(-c2cc(O[C@@H](C)C(F)(F)F)c(C(=O)Nc3c(F)cccc3Cl)cc2F)c1=O [BAY2402234]
- penetration coefficient (log PE) [1]: superior penetration coefficient (log PE) compared to BQR
- DMPs in promoter islands ([2]; 48 h): 2/18
- differentially methylated positions (DMPs), BAY vs vehicle ([2]; 48 h of treatment): 18
- DMPs in promoter islands ([2]; 72 h): 123/751
- differentially methylated positions (DMPs), BAY vs vehicle ([2]; 72 h of treatment): 751

— patent US20250152559A1, “METHODS FOR TREATING MYC-AMPLIFIED CANCER” (The Governing Council of the University of Toronto, priority 2023, published 2025)
